Laboratory results as given in patent publication US5681826A, “Saccharide composition with reduced reducibility, and preparation and uses thereof” (Kabushiki Kaisha Hayashibara Seibutsu Kagaku Kenkyujo, priority 1994, dated 1997).

Tests used:
[1] = Reducing power on the Somogyi-Nelson's method expressed by DE; assay type: physicochemical; settings: d.s.b.
Method: The reducing powders of these novel high-purity saccharides were determined on the Somogyi-Nelson's method and expressed by DE.

[2] = Maillard reaction with glycine, absorbance at 480 nm; assay type: physicochemical; settings: for Coloration degree (480 nm): one % glycine, 10% saccharide, pH 7.0, 100°C., 90 min, 1-cm cell
Method: A solution, containing one % glycine and 10% of a saccharide preparation PI, P II, P III, P IV or P V in Experiment 4 and 50 mM phosphate buffer (pH 7.0), was kept at 100° C. for 90 min, followed by cooling the resultant solution, and determining for absorbance at a wave length of 480 nm in a 1-cm cell. As a control, maltotriose, maltotetraose, maltopentaose, maltohexaose and maltoheptaose, as a material for the saccharide preparations, were similarly treated as above, and measured for absorbance at a wave length of 480 nm.
A solution, containing one % of glycine, 10% of a high-purity trehalose preparation with a purity of 99.5%, d.s.b., obtained by the method in Experiment 17, and 50 mM phosphate buffer (pH 7.0), was kept at 100° C. for 90 min, followed by cooling the resultant solution and determining the absorbance at a wave length of 480 nm in a 1-cm cell. As a control, glucose and maltose were similarly treated as above, and the resultants were determined for absorbance at a wave length of 480 nm.

glucoamylase = experiment: Enzymatic hydrolysis by glucoamylase; assay type: biochemical; settings: for Glucose / Molecular ratio (Glucose/Trehalose) / Trehalose: one unit glucoamylase, pH 4.5, 40°C., 6 hours
Method: Fifty mg aliquots of non-reducing saccharide preparations P I, P II, P III, P IV and P V in Experiment 4 were respectively dissolved in one ml of 50 mM acetate buffer (pH 4.5), admixed with one unit of glucoamylase commercialized by Seikagaku-Kogyo Co., Ltd., Tokyo, Japan, to effect enzymatic hydrolysis at 40° C. for 6 hours. HPLC analysis only detected glucose and trehalose in all resultant mixtures. The percentages and the molecular ratios of glucose to trehalose in each saccharide are in Table 5.

β-amylase = experiment: Hydrolysis by β-amylase; assay type: biochemical
α-amylase = experiment: Hydrolysis by α-amylase derived from pig pancreas; assay type: in vitro ADME; settings: for Saccharide composition of hydrolysate by α-amylase: G1 (glucose) / Saccharide composition of hydrolysate by α-amylase: G2 (maltose) / Saccharide composition of hydrolysate by α-amylase: G3 (maltotriose) / Saccharide composition of hydrolysate by α-amylase: P I / Saccharide composition of hydrolysate by α-amylase: P II: one unit, pH 6.9, 37°C., 18 hours
Method: (§1) The enzymatic reaction with the α-amylase was as follows: Dissolve 10 mg of a substrate in one ml of 50 mM phosphate buffer (pH 6.9), mix the resultant solution with one unit of the α-amylase, and incubate the resultant mixture at 37° C. for 18 hours. The enzymatic reaction with the α-glucosidase was conducted under the same conditions as in the case of α-amylase except that 50 mM acetate buffer (pH 4.0) was used as a buffer. The enzymatic reaction using the rat intestinal acetone powder was carried out under the same conditions as in the case of α-amylase except that 50 mM maleate buffer (pH 6.0) was used as a buffer. The saccharide compositions obtained by the α-amylase, α-glucosidase and rat intestinal acetone powder are respectively in Tables 6, 7 and 8.

α-glucosidase = experiment: Hydrolysis by α-glucosidase derived from rice; assay type: biochemical; settings: pH 4.0, 37°C., 18 hours
Method: as §1

[3] = Hydrolysis by rat intestinal acetone powder; assay type: in vitro ADME; settings: pH 6.0, 37°C., 18 hours
Method: as §1

[4] = Acute toxicity test (Experiment 8); settings: mouse, in vivo, po
Description: (§2) By using 7-week old dd-strain mice, the non-reducing saccharide preparation P I, P II, P III, P IV or P V was orally administered to the mice for acute toxicity test.

mice = experiment: Acute toxicity test (Experiment 8); settings: oral, highest possible doses
Description: as §2

[5] = target: T1, trehalose-releasing enzyme (Rhizobium sp. M-11, UniProt Q53238); experiment: Action of trehalose-releasing enzyme on α-glycosyltrehalose and maltooligosaccharides (Table 13); assay type: biochemical; settings: 20% substrate, 2 units/g, 40°C., pH 7.0, 48 hours; label = substrate
T1 construct: M-11 culture
T1 sequence (Q53238 1-596): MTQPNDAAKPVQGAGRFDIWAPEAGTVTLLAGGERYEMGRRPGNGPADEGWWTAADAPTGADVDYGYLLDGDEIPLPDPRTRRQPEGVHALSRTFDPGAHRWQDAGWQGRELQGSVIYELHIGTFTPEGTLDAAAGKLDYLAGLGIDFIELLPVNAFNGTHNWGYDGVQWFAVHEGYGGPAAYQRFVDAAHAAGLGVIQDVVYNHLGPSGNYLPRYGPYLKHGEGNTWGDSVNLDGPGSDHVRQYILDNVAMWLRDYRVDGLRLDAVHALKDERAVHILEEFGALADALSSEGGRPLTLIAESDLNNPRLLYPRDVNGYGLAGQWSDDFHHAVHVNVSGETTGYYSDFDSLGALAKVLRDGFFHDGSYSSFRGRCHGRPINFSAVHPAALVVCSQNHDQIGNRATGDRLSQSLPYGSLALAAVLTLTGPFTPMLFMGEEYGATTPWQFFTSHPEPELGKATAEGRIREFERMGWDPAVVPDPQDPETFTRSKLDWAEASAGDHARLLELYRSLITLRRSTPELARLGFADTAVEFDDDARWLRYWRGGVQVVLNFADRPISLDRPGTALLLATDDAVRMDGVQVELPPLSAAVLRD
Method: An aqueous solution containing 20%, d.s.b., of one of the above 5 non-reducing saccharide preparations, namely α-glycosyltrehalose preparations, was prepared, followed by mixing it with 2 units/g substrate, d.s.b., of the purified trehalose-releasing enzyme obtained in Experiment 15, and subjecting the resultant to an enzymatic reaction at 40° C. and pH 7.0 for 48 hours. The resultant each reaction mixture was desalted, and analyzed for saccharide composition on HPLC using "WAKOBEADS WB-T-330 column", a column of Wako Pure Chemical Industries Ltd., Tokyo, Japan. As a control, a fresh preparation of the same trehalose-releasing enzyme was allowed to act on maltotriose, maltotetraose, maltopentaose, maltohexaose or maltoheptaose, and the resultant each reaction mixture was analyzed for saccharide composition on HPLC.

Structure (SMILES)	DE (reducing power) [1]	Coloration degree relative to corresponding material maltooligosaccharides [2]	Coloration degree (480 nm) [2]	Hydrolysis by glucoamylase (glucoamylase)	Glucose (glucoamylase)	Molecular ratio (Glucose/Trehalose) (glucoamylase)	Trehalose (glucoamylase)	Hydrolysis by β-amylase (β-amylase)	Saccharide composition of hydrolysate by α-amylase: G1 (glucose) (α-amylase)	Saccharide composition of hydrolysate by α-amylase: G2 (maltose) (α-amylase)	Saccharide composition of hydrolysate by α-amylase: G3 (maltotriose) (α-amylase)	Saccharide composition of hydrolysate by α-amylase: P I (α-amylase)	Saccharide composition of hydrolysate by α-amylase: P II (α-amylase)	Saccharide composition of hydrolysate by α-glucosidase: Glucose (α-glucosidase)	Saccharide composition of hydrolysate by α-glucosidase: Other saccharides (α-glucosidase)	Saccharide composition of hydrolysate by α-glucosidase: Trehalose (α-glucosidase)	Saccharide composition of hydrolysate by rat intestinal acetone powder: Glucose [3]	Saccharide composition of hydrolysate by rat intestinal acetone powder: Other saccharides [3]	Saccharide composition of hydrolysate by rat intestinal acetone powder: Trehalose [3]	LD50 [4]	further results
OC[C@H]1O[C@H](O[C@H]2O[C@H](CO)[C@@H](O[C@H]3O[C@H](CO)[C@@H](O[C@H]4O[C@H](CO)[C@@H](O[C@H]5O[C@H](CO)[C@@H](O)[C@H](O)[C@H]5O)[C@H](O)[C@H]4O)[C@H](O)[C@H]3O)[C@H](O)[C@H]2O)[C@H](O)[C@@H](O)[C@@H]1O [P III, α-maltotriosyltrehalose]	0.10	3-6%	0.012	hydrolyzed into 3 glucose molecules and one trehalose molecule	61.4%	3.02	38.6%	one maltose molecule and one P I molecule	1.2	33.0	0	61.0	4.8	61.7%	0.2%	38.1%	62.0%	0.4%	37.6%	≥ 50000 mg/kg	Hydrolysis by α-amylase (α-amylase): hydrolyzed by the α-amylase into lower molecular weight oligosaccharides; Mortality (mice): no mouse died; Percentage of reducing saccharide released (glucose, maltose, maltotriose, maltotetraose or maltopentaose) [5]: 60.0%; Percentage of trehalose released [5]: 39.5%
OC[C@H]1O[C@H](O[C@H]2O[C@H](CO)[C@@H](O[C@H]3O[C@H](CO)[C@@H](O)[C@H](O)[C@H]3O)[C@H](O)[C@H]2O)[C@H](O)[C@@H](O)[C@@H]1O [P I, α-glucosyltrehalose]	0.83	3-6%	0.027	hydrolyzed into one glucose molecule and one trehalose molecule	36.2%	1.07	63.8%	not hydrolyzed	0	0.4	2.3	97.3	0	36.5%	0.5%	63.0%	37.2%	0.4%	62.4%	≥ 50000 mg/kg	Hydrolysis by α-amylase (α-amylase): not substantially hydrolyzed; Mortality (mice): no mouse died; Percentage of reducing saccharide released (glucose, maltose, maltotriose, maltotetraose or maltopentaose) [5]: 6.5%; Percentage of trehalose released [5]: 17.5%
OC[C@H]1O[C@H](O[C@H]2O[C@H](CO)[C@@H](O[C@H]3O[C@H](CO)[C@@H](O[C@H]4O[C@H](CO)[C@@H](O[C@H]5O[C@H](CO)[C@@H](O[C@H]6O[C@H](CO)[C@@H](O)[C@H](O)[C@H]6O)[C@H](O)[C@H]5O)[C@H](O)[C@H]4O)[C@H](O)[C@H]3O)[C@H](O)[C@H]2O)[C@H](O)[C@@H](O)[C@@H]1O [P IV, α-maltotetraosyltrehalose]	0.27	3-6%	0.016	hydrolyzed into 4 glucose molecules and one trehalose molecule	68.3%	4.09	31.7%	one maltose molecule and one P II molecule	1.6	7.5	40.4	47.2	3.3	69.5%	0.3%	30.2%	68.8%	0.4%	30.8%	≥ 50000 mg/kg	Hydrolysis by α-amylase (α-amylase): hydrolyzed by the α-amylase into lower molecular weight oligosaccharides; Mortality (mice): no mouse died; Percentage of reducing saccharide released (glucose, maltose, maltotriose, maltotetraose or maltopentaose) [5]: 65.5%; Percentage of trehalose released [5]: 34.2%
OC[C@H]1O[C@H](O[C@H]2O[C@H](CO)[C@@H](O[C@H]3O[C@H](CO)[C@@H](O[C@H]4O[C@H](CO)[C@@H](O[C@H]5O[C@H](CO)[C@@H](O[C@H]6O[C@H](CO)[C@@H](O[C@H]7O[C@H](CO)[C@@H](O)[C@H](O)[C@H]7O)[C@H](O)[C@H]6O)[C@H](O)[C@H]5O)[C@H](O)[C@H]4O)[C@H](O)[C@H]3O)[C@H](O)[C@H]2O)[C@H](O)[C@@H](O)[C@@H]1O [P V, α-maltopentaosyltrehalose]	0.23	3-6%	0.015	hydrolyzed into 5 glucose molecules and one trehalose molecule	72.9%	5.11	27.1%	2 maltose molecules and one P I molecule	1.0	8.6	35.3	10.2	44.9	71.4%	0.3%	28.3%	73.4%	0.1%	26.5%	≥ 50000 mg/kg	Mortality (mice): no mouse died; Percentage of reducing saccharide released (glucose, maltose, maltotriose, maltotetraose or maltopentaose) [5]: 70.6%; Percentage of trehalose released [5]: 29.1%
